Test results from patent publication US9139532B2, “Pyrazolyl guanidine F1F0-atpase inhibitors and therapeutic uses thereof” (Lycera Corporation, priority 2010, dated 2015).
Where two headings read alike, the source gives them in different places.

Legend:
F1F0-ATPase = biological target: T1, F1F0-ATPase (Bos taurus, UniProt P13621); experiment: Inhibition of F1F0-ATPase activity in synthesizing ATP; assay type: biochemical; details: inhibition of ATP synthesis by F1F0-ATPase; read-out: ATP Syn IC50
T1 construct: from tissue

Ramos cells = experiment: Cytotoxicity in Ramos cells; assay type: cell-based; details: cytotoxicity in Ramos cells, read-out: Ramos Cell EC50

Row | Compound | IC50 (F1F0-ATPase) [µM] | EC50 (Ramos cells) [µM] | EC50 (Ramos cells; Homo sapiens) [µM]
1 | O=C(/N=C(/Nc1cc(F)cc(Cl)c1)Nc1cc(C2CCC2)[nH]n1)c1ccc(Cl)c(F)c1 [Compound A-147] | < 10 | < 10 | –
2 | COC[C@H](C)N/C(=N/C(=O)c1ccc(OC)nc1)Nc1cc(-c2ccc(F)cc2)n[nH]1 [Compound A-493] | < 10 | < 10 | –
3 | O=C(/N=C(\Nc1cc(-c2cc(F)cc(F)c2)n[nH]1)NC1CCCC1)c1ccc(Cl)cc1 [Compound A-229] | < 10 | < 10 | –
4 | CC(C)(C)N/C(=N/C(=O)c1ccc(C(F)(F)F)cc1)Nc1cc(-c2ccc(Cl)cc2)[nH]n1 [Compound A-138] | < 10 | < 10 | –
5 | CC(C)(C)NC(=NC(=O)c1ccc(F)cc1)Nc1cc(-c2ccc(Cl)cc2)n[nH]1 [Compound A-135] | < 10 | – | < 10
6 | N#Cc1cccc(C(=O)/N=C(\Nc2cc(-c3ccc(F)cc3)[nH]n2)N[C@@H]2CCOC2)c1 [Compound A-510] | < 10 | < 10 | –
7 | CC1(NC(=NC(=O)c2ccc(F)c(F)c2)Nc2cc(-c3cc(F)cc(Cl)c3)n[nH]2)CCCC1 [Compound A-288] | < 10 | – | < 10
8 | CC(C)(C)NC(=NC(=O)c1ccc(Cl)cc1)Nc1cc(-c2ccc(Cl)cc2)n[nH]1 [Compound A-132] | < 10 | – | < 10
9 | CC(C)(C)CN/C(=N/C(=O)c1ccc(F)c(F)c1)Nc1cc(C(F)(F)F)n[nH]1 [Compound A-43] | < 10 | – | < 10
10 | O=C(/N=C(\Nc1cc(C(F)(F)F)[nH]n1)NC1CCCC1)c1ccc(C(F)F)cc1 [Compound A-67] | < 10 | – | < 10
11 | O=C(/N=C(/NCC1CCOC1)Nc1cc(C(F)(F)F)[nH]n1)c1ccc(F)cc1 (stereo not drawn) [Compound A-406] | < 10 | > 10 | –
12 | Cc1ccc(C(=O)N=C(NCc2ccc(F)cc2Cl)Nc2cc(C(F)(F)F)n[nH]2)cc1F [Compound A-553] | < 10 | – | < 10
13 | CC(C)(C)N/C(=N/C(=O)c1ccc(Cl)c(F)c1)Nc1cc(-c2ccccc2)[nH]n1 [Compound A-141] | < 10 | < 10 | –
14 | CC(C)(C)N/C(=N/C(=O)c1cccc(C(F)(F)F)c1)Nc1cc(C(F)(F)F)[nH]n1 [Compound A-77] | < 10 | – | < 10
15 | O=C(N=C(Nc1cc(-c2ccc(Cl)cc2)n[nH]1)NC1CCC1)c1ccc(Cl)c(F)c1 [Compound A-226] | < 10 | – | < 10
16 | CC(C)(C)N/C(=N/C(=O)c1ccc(C(F)(F)F)cc1)Nc1cc(-c2ccc(F)cc2)[nH]n1 [Compound A-50] | < 10 | – | < 10
17 | O=C(/N=C(\Nc1cc(-c2cc(F)cc(F)c2)n[nH]1)NC1CCC1)c1ccc(Cl)c(F)c1 [Compound A-347] | < 10 | < 10 | –
18 | COc1ccccc1C(=O)/N=C(\Nc1cc(-c2ccc(F)cc2)[nH]n1)NC(C)(C)C [Compound A-157] | > 10 | > 10 | –
19 | C[C@@H](N/C(=N/C(=O)c1ccc(F)c(F)c1)Nc1cc(C(F)(F)F)[nH]n1)c1ccc(Cl)cc1 [Compound A-46] | < 10 | – | < 10
20 | COC[C@H](C)N/C(=N/C(=O)c1ccc(F)cc1F)Nc1cc(-c2ccc(F)cc2)n[nH]1 [Compound A-488] | < 10 | < 10 | –
21 | O=C(N=C(Nc1cc(C(F)(F)F)n[nH]1)NC1CCC(F)(F)CC1)c1ccc(Cl)c(F)c1 [Compound A-558] | < 10 | – | < 10
22 | CC(C)CN/C(=N/C(=O)c1ccc(F)c(F)c1)Nc1cc(-c2ccc(F)cc2)n[nH]1 [Compound A-261] | < 10 | < 10 | –
23 | N#Cc1cccc(C(=O)/N=C(\Nc2cc(-c3ccc(F)cc3)n[nH]2)NC2CCC(F)(F)CC2)c1 [Compound A-502] | < 10 | < 10 | –
24 | O=C(/N=C(\Nc1cc(-c2ccc(CO)cc2)[nH]n1)NC1CCCC1)c1ccc(F)c(F)c1 [Compound A-158] | > 10 | > 10 | –
25 | CC(C)(C)CN/C(=N/C(=O)c1cccc(C(F)(F)F)c1)Nc1cc(C(F)(F)F)[nH]n1 [Compound A-76] | < 10 | – | < 10
26 | CCC(C)CN/C(=N/C(=O)c1ccc(Cl)c(F)c1)Nc1cc(-c2cc(F)cc(F)c2)n[nH]1 (stereo not drawn) [Compound A-346] | < 10 | < 10 | –
27 | O=C(/N=C(/Nc1cc(C(F)(F)F)n[nH]1)NC1CCCC1)c1ccc(C(F)(F)F)cc1 [Compound A-92] | < 10 | – | < 10

Further lines, with some results ahead:

Row | IC50 (F1F0-ATPase) [µM] | Compound | EC50 (Ramos cells) [µM] | EC50 (Ramos cells; Homo sapiens) [µM]
28 | < 10 | N#Cc1cccc(C(=O)/N=C(\Nc2cc(-c3ccc(F)cc3)[nH]n2)NC2CCCC2)c1 [Compound A-520] | < 10 | –
29 | < 10 | CCC(C)N/C(=N/C(=O)c1ccc(Cl)c(F)c1)Nc1cc(-c2ccc(F)cc2)n[nH]1 (stereo not drawn) [Compound A-219] | < 10 | –
30 | < 10 | CC(C)(C)N/C(=N/C(=O)c1ccc(Cl)cc1)Nc1cc(-c2ccc(F)cc2)n[nH]1 [Compound A-453] | < 10 | –
31 | < 10 | Cc1cc(C(=O)/N=C(/NCc2ccccc2C)Nc2cc(-c3ccc(F)cc3)[nH]n2)ccc1F [Compound A-393] | < 10 | –
32 | > 10 | O=C(/N=C(\Nc1cc(-c2ccc(F)cc2)[nH]n1)N1CCCC1)c1ccc(F)cc1 [Compound A-156] | > 10 | –
33 | < 10 | Cc1ccc(-c2cc(NC(=NC(=O)c3ccc(C(F)(F)F)cc3)NC(C)(C)C)[nH]n2)cc1F [Compound A-434] | – | > 10
34 | < 10 | O=C(/N=C(/NCc1ccc(F)cc1Cl)Nc1cc(C(F)(F)F)[nH]n1)c1ccc(C(F)F)cc1 [Compound A-83] | – | < 10
35 | < 10 | O=C(/N=C(/NCc1cccc(C(F)(F)F)c1)Nc1cc(C(F)(F)F)[nH]n1)c1ccc(C(F)(F)F)cc1 [Compound A-2] | – | < 10
36 | < 10 | CCC(C)NC(=NC(=O)c1ccc(Cl)c(F)c1)Nc1cc(-c2cc(F)cc(F)c2)n[nH]1 (stereo not drawn) [Compound A-362] | – | < 10
37 | < 10 | CC(C)(C)N/C(=N/C(=O)c1ccc(C(F)(F)F)cc1)Nc1cc(-c2cc(F)cc(F)c2)n[nH]1 [Compound A-299] | < 10 | –
38 | < 10 | CC(N/C(=N/C(=O)c1ccc(C(F)(F)F)cc1)Nc1cc(C(F)(F)F)[nH]n1)c1ccccc1Cl (stereo not drawn) [Compound A-22] | – | < 10
39 | < 10 | O=C(/N=C(/NCc1ccc(Cl)cc1F)Nc1cc(C(F)(F)F)[nH]n1)c1ccc(C(F)(F)F)cc1 [Compound A-21] | – | < 10
40 | > 10 | Cc1cc(N/C(=N\C(=O)c2ccc(F)c(F)c2)NCCC(F)(F)F)n[nH]1 [Compound A-186] | > 10 | –
41 | < 10 | O=C(/N=C(/Nc1cc(F)cc(Cl)c1)Nc1cc(-c2ccc(F)cc2)n[nH]1)c1cccc(F)c1 [Compound A-458] | < 10 | –
42 | < 10 | O=C(N=C(Nc1cc(-c2ccc(F)cc2)n[nH]1)NC1CCCC1)c1ccc(F)cc1 [Compound A-521] | – | < 10
43 | < 10 | Cc1cc(C(=O)/N=C(\Nc2cc(-c3ccc(F)cc3)n[nH]2)NC(C)(C)C)ccn1 [Compound A-341] | < 10 | –
44 | < 10 | CCc1ccc(-c2cc(N/C(=N\C(=O)c3ccc(C(F)(F)F)cc3)NC(C)(C)C)[nH]n2)cc1 [Compound A-432] | > 10 | –

Row | IC50 (F1F0-ATPase) [µM] | Compound | EC50 (Ramos cells) [µM] | EC50 (Ramos cells; Homo sapiens) [µM]
45 | < 10 | O=C(/N=C(\Nc1cc(-c2ccc(F)cc2)n[nH]1)NC1COC1)c1ccc(F)c(F)c1 [Compound A-199] | > 10 | –
46 | < 10 | CC(C)NC(=NC(=O)c1cccc(C#N)c1)Nc1cc(-c2ccc(F)cc2)n[nH]1 [Compound A-127] | – | > 10
47 | < 10 | COc1cccc(CN/C(=N/C(=O)c2cccc(F)c2)Nc2cc(-c3ccc(F)cc3)[nH]n2)c1 [Compound A-398] | < 10 | –
48 | < 10 | COC[C@H](C)N/C(=N/C(=O)c1ccc(C)c(F)c1)Nc1cc(C(F)(F)F)[nH]n1 [Compound A-535] | < 10 | –
49 | < 10 | Cc1ccc(-c2cc(N/C(=N\C(=O)c3ccc(F)c(F)c3)NC(C)C(C)C)[nH]n2)cc1F (stereo not drawn) [Compound A-324] | < 10 | –
50 | > 10 | CC(C)(C)c1cc(NC(=NC(=O)c2ccc(Cl)c(F)c2)Nc2cc(-c3cc(F)cc(F)c3)n[nH]2)no1 [Compound A-345] | – | > 10
51 | < 10 | COc1cccc(C(=O)/N=C(/NCc2ccccc2C)Nc2cc(-c3ccc(F)cc3)[nH]n2)c1 [Compound A-395] | < 10 | –
52 | < 10 | CCC(C)N/C(=N/C(=O)c1cccc(C#N)c1)Nc1cc(-c2ccc(Cl)cc2)n[nH]1 (stereo not drawn) [Compound A-306] | < 10 | –
53 | < 10 | CC(C)(C)N/C(=N/C(=O)c1ccc(C(F)(F)F)cc1)Nc1[nH]nc(C(C)(C)C)c1F [Compound A-340] | < 10 | –
54 | < 10 | Cc1ccc(-c2cc(N/C(=N\C(=O)c3ccc(C(F)(F)F)cc3)NC3CCC3)[nH]n2)cc1F [Compound A-329] | < 10 | –
55 | < 10 | CC(C)CN/C(=N/C(=O)c1cccc(S(C)(=O)=O)c1)Nc1cc(-c2ccc(F)cc2)n[nH]1 [Compound A-429] | < 10 | –
56 | < 10 | O=C(/N=C(\Nc1cc(C(F)(F)F)n[nH]1)NC1CCCOC1)c1ccc(Cl)c(F)c1 (stereo not drawn) [Compound A-119] | – | < 10
57 | < 10 | Cc1cc(N/C(=N\C(=O)c2ccc(C(F)(F)F)cc2)NCC(C)(C)C)n[nH]1 [Compound A-155] | < 10 | –
58 | < 10 | O=C(/N=C(\Nc1cc(-c2cc(F)cc(Cl)c2)n[nH]1)NC1CCCC1)c1ccc(F)c(F)c1 [Compound A-289] | < 10 | –
59 | < 10 | O=C(/N=C(/NCc1ccc(F)cc1Cl)Nc1cc(-c2cccc(Cl)c2)n[nH]1)c1ccc(Cl)c(F)c1 [Compound A-472] | > 10 | –
60 | < 10 | CC(C)(C)NC(=NC(=O)c1ccc(C(F)(F)F)cc1)Nc1cc(-c2cccc(Cl)c2)[nH]n1 [Compound A-439] | – | < 10
